Assay results reported in the NIST ThermoML archive (doi:10.1016/j.jct.2008.02.020).

Conditions: Liquid, Buoyancy - hydrostatic balance with magnetic suspension - one sinker

Cc1ccc(Cl)cc1Cl [1,3-dichloro-4-methylbenzene]
Conditions | mass density [kg/m3]
263.15 K, 97.86 kPa | 1280.75
263.15 K, 1123.9 kPa | 1281.41
263.15 K, 2150.1 kPa | 1282.08
263.15 K, 3971.8 kPa | 1283.26
263.15 K, 6167.5 kPa | 1284.65
263.15 K, 7898.5 kPa | 1285.75
263.15 K, 9974.7 kPa | 1287.06
273.15 K, 101.87 kPa | 1270.26
273.15 K, 1168.7 kPa | 1270.98
273.15 K, 2038.5 kPa | 1271.57
273.15 K, 4184.1 kPa | 1273.02
273.15 K, 5901.9 kPa | 1274.17
273.15 K, 7917 kPa | 1275.5
273.15 K, 10080 kPa | 1276.92
273.15 K, 11859 kPa | 1278.07
273.15 K, 14024 kPa | 1279.46
273.15 K, 16108 kPa | 1280.79
273.15 K, 17842 kPa | 1281.88
273.15 K, 20076 kPa | 1283.28
273.15 K, 22132 kPa | 1284.55
273.15 K, 24150 kPa | 1285.79
273.15 K, 26076 kPa | 1286.95
273.15 K, 27913 kPa | 1288.06
273.15 K, 29994 kPa | 1289.3
293.15 K, 97.54 kPa | 1249.31
293.16 K, 1126.7 kPa | 1250.08
293.17 K, 1886.8 kPa | 1250.65
293.18 K, 4191.9 kPa | 1252.36
293.19 K, 6062.4 kPa | 1253.73
293.2 K, 7970.1 kPa | 1255.11
293.21 K, 10165 kPa | 1256.68
293.22 K, 12144 kPa | 1258.09
293.23 K, 14101 kPa | 1259.46
293.24 K, 16101 kPa | 1260.85
293.25 K, 18110 kPa | 1262.23
293.26 K, 20077 kPa | 1263.55
293.27 K, 22136 kPa | 1264.94
293.28 K, 24103 kPa | 1266.25
293.29 K, 25962 kPa | 1267.48
293.3 K, 27896 kPa | 1268.74
293.31 K, 29829 kPa | 1270
313.15 K, 107.85 kPa | 1228.39
313.15 K, 1095.7 kPa | 1229.21
313.15 K, 2082.7 kPa | 1230.02
313.15 K, 4107.2 kPa | 1231.67
313.15 K, 5854.6 kPa | 1233.08
313.15 K, 8123.1 kPa | 1234.89
313.15 K, 10162 kPa | 1236.49
313.15 K, 12124 kPa | 1238.01
313.15 K, 13892 kPa | 1239.36
313.15 K, 16106 kPa | 1241.04
313.15 K, 18086 kPa | 1242.52
313.15 K, 20144 kPa | 1244.04
313.15 K, 22020 kPa | 1245.42
313.15 K, 24014 kPa | 1246.86
313.15 K, 25938 kPa | 1248.23
313.15 K, 27776 kPa | 1249.54
313.15 K, 29828 kPa | 1250.98
333.15 K, 101.71 kPa | 1207.38
333.15 K, 1081.7 kPa | 1208.28
333.15 K, 1877.8 kPa | 1209
333.15 K, 3933.1 kPa | 1210.85
333.15 K, 5993.1 kPa | 1212.68
333.15 K, 8164.3 kPa | 1214.58
333.15 K, 10140 kPa | 1216.29
333.15 K, 12129 kPa | 1217.98
333.15 K, 14157 kPa | 1219.68
333.15 K, 16129 kPa | 1221.31
333.15 K, 18148 kPa | 1222.96
333.15 K, 20046 kPa | 1224.49
333.15 K, 22094 kPa | 1226.12
333.15 K, 24026 kPa | 1227.64
333.15 K, 25826 kPa | 1229.04
333.15 K, 27856 kPa | 1230.61
333.15 K, 29702 kPa | 1232.01
353.15 K, 101.05 kPa | 1186.2
353.15 K, 1224 kPa | 1187.34
353.15 K, 2054.2 kPa | 1188.18
353.15 K, 4178 kPa | 1190.3
353.15 K, 6020.6 kPa | 1192.11
353.15 K, 8131.5 kPa | 1194.14
353.15 K, 10113 kPa | 1196.02
353.15 K, 12081 kPa | 1197.87
353.15 K, 14118 kPa | 1199.74
353.15 K, 16085 kPa | 1201.53
353.15 K, 18058 kPa | 1203.29
353.15 K, 19980 kPa | 1204.98
353.15 K, 22046 kPa | 1206.78
353.15 K, 24056 kPa | 1208.5
353.15 K, 26025 kPa | 1210.17
353.15 K, 27872 kPa | 1211.71
353.15 K, 29804 kPa | 1213.32
373.15 K, 99.43 kPa | 1164.78
373.15 K, 1084.4 kPa | 1165.89
373.15 K, 1956.5 kPa | 1166.87
